In patent US7514419B2, “Phosphorus-containing thyromimetics” (Metabasis Therapeutics, Inc., priority 2003, dated 2009):
Each block holds one compound with its values, some of them ahead of it.

Legend:
Normal rats = assay: Hepatic triglyceride content in normal rats infused for 7 days; type: in vivo, rat; conditions: normal rats chronically infused for 7 days
Method: Normal rats were chronically infused with Compound 7 for 7 days. Liver triglycerides were analyzed following lipid extraction by the Bligh Dyer method (Bligh EG and Dyer WJ, A rapid method of total lipid extraction and purification. Can J Med Sci. 1959 (August); 37(8):911-7, incorporated herein by reference). Total triglycerides were analyzed in the liver extracts by an enzymatic assay (Thermo Electron Corporation). Total lipid was normalized to initial liver weight and triglyceride content was normalized to liver weight. […] There was a 4% reduction in liver triglycerides for this group and the results were not statistically significant.

ZDF rats [1] = assay: Hepatic triglyceride content and steatosis in ZDF rats, oral 28 days; type: in vivo, rat
Method: In other experiments, Compound 7 was orally administered to ZDF rats for 28 days. Liver triglycerides were analyzed as described above. Total liver triglycerides were reduced in the treated animals 42% in the 2.5 mg/kg/d group. […] The hepatic steatosis is a well known and described phenomenon for the ZDF rat, and therefore not attributable to vehicle treatment.

ZDF rats [2] = assay: Circulating TSH, ZDF rats, 28 days; type: in vivo, rat; conditions: 50 mg/kg/d for 28 days
Excerpt: (§1) Another concern with synthetic thyromimetics is the suppression of the endogenous thyroid axis. Thyroid homeostasis is maintained by the action of thyroid releasing hormone (TRH) and thyroid stimulating hormone (TSH). […] Although this particular side effect has been noted, it has typically been treated with less concern than the cardiac safety issues. […] Therefore previous investigators have measured TSH levels when testing synthetic thyromimetics and have used a 30% decrease of TSH as the denominator in their therapeutic index calculations. […] Therefore, both compounds suppress TSH as doses lower than that required to decrease circulating cholesterol. […] However, 0.2 mg/kg/d of Compound 18 in 28 day treated ZDF rats, decreased TSH levels greater than 90%.

mice = assay: Circulating TSH, mice, 77 days; type: in vivo, mouse; conditions: 10 mg/kg/d for 77 days
Excerpt: as §1

[3] = system: normal rats maintained on a cholesterol-containing diet; assay: Continuous infusion study in rats on a cholesterol-containing diet; conditions: continuous infusion 1 mg/kg/day
Method: Screening for thyromimetic activity was performed in normal rats maintained on a cholesterol-containing diet.

cholesterol-fed rat [4] = assay: Subacute study in cholesterol-fed rats, IP once-a-day for seven days: serum cholesterol, heart weight, heart mGPDH
Method: The cholesterol-fed rat is an animal model of hypercholesterolemia generated by feeding the animals a diet with high cholesterol content.
Methods: Rats were maintained on a diet containing 1.5% cholesterol and 0.5% cholic acid for 2 weeks prior to initiation of treatment. Serum cholesterol values were assessed and the animals randomized into groups for treatment.

ZDF rats [5] = conditions: rat, in vivo, 28 days
Method: Compound 18 was administered at doses up to 5 mg/kg/d. Compound cis-13-1 was administered at doses up to 50 mg/kg/d. We reasoned that the ZDF rat, as a metabolically challenged animal model, would be more sensitive to the potential adverse cardiac effects of thyromimetics than a normal, cholesterol-fed rat. At sacrifice, heart rate, and the first derivative of left ventricular pressure (LV dP/dt) were measured with a Millar catheter inserted into the left ventricle.

[6] = system: Hypercholesterolemic rats; assay: Cholesterol lowering in hypercholesterolemic rats; type: in vivo, rat; conditions: 0.5 mg/kg/d orally
Sprague Dawley (SD) rat = assay: Cardiovascular activity in the Sprague Dawley rat, 7 days oral; type: in vivo; conditions: SD rats, Compound 18 1 mg/kg, Compound cis-13-1 1-50 mg/kg/day
Excerpt: Method: […] The control group (n=6) was given vehicle only. […] On the 7th day after the start of dosing, animals were anesthetized with Isofluorane and the left ventricle cannulated with a high fidelity catheter tip transducer via the right carotid artery. Left ventricular pressure, its first derivative (LVdP/dt), lead I ECG, and heart rate (HR) triggered off the ECG waveform, were digitally recorded. LV dP/dt is a well accepted measure of ionotropic state. Systolic and diastolic aortic pressures were measured by retracting the catheter into the proximal aorta.

cholesterol fed rats = assay: Subacute study in cholesterol fed rats, PO once a day for seven days: cholesterol reduction, heart weight; type: in vivo, rat; conditions: 1 mg/kg/day PO once a day for seven days
Method: Methods: […] Compound 13-1-cis and Compound 18 were administered PO once a day for seven days. Serum TSH is measured using an enzyme immunoassay (EIA) kit designed for rat TSH (Amersham Pharmacia Biotech, Arlington Heights, Ill.). Expression levels of liver genes (e.g., the LDL-receptor, apoB, cpt-1, spot14 and apoAI) and heart genes ([…]2, HCN2,Kvl.5, MHCα, MHCβ, Alpha1c) are quantified by Northern blot analysis or by RT-PCR. […] Oligonucleotides specific for the complementary gene sequences are used to make ^32P-labeled probes (Multiprime DNA labeling systems, Amersham Pharmacia Biotech). Following hybridization of the probes to the nylon membranes, radioactivity is assessed on a blue film (Eastman Kodak Co,), and the resulting image quantified using the appropriate software. RT-PCR is performed using an iCycler instrument (Biorad) using appropriate primers by means of standard methodology [[…] et al. (2000) Life Sciences 66: 1683-94]. […] The activities of PEPCK and glucose 6-phosphatase in liver are measured by means of direct enzymatic assays of homogenized liver tissue as described by Andrikopoulos S et al. (1993) Diabetes 42: 1731-1736. Alternatively, expression levels of the corresponding genes are determined by Northern blot analysis or RT-PCR as described above.

cholesterol-fed rats = assay: Circulating TSH, cholesterol-fed rats, 7 days; type: in vivo, rat; conditions: cholesterol-fed rats treated for 7 days; 30% decrease of TSH
Excerpt: as §1

cholesterol-fed rat [7] = conditions: ED15 for heart rate compared to ED50 for cholesterol lowering; cited from earlier work
[8] = target: T1, human thyroid hormone receptors TRα1 (Homo sapiens, UniProt P10827); assay: Receptor binding: labeled T3 binding/displacement, gel filtration and scintillation proximity assay (SPA); conditions: read-out: Ki TRα
T1 sequence (P10827 1-410 isoform P10827-2): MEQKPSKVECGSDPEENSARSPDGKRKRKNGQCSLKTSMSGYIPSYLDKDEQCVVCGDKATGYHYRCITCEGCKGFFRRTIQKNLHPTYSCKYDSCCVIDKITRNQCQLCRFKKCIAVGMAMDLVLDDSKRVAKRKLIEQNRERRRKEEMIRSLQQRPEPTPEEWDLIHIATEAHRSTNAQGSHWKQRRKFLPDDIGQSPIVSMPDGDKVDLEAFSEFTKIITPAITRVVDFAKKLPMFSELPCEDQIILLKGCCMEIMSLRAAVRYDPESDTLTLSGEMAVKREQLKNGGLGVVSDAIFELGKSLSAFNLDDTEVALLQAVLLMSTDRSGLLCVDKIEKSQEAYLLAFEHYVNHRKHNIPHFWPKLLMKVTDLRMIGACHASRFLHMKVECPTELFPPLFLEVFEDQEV
T1 sequence (P19793 1-462 partner): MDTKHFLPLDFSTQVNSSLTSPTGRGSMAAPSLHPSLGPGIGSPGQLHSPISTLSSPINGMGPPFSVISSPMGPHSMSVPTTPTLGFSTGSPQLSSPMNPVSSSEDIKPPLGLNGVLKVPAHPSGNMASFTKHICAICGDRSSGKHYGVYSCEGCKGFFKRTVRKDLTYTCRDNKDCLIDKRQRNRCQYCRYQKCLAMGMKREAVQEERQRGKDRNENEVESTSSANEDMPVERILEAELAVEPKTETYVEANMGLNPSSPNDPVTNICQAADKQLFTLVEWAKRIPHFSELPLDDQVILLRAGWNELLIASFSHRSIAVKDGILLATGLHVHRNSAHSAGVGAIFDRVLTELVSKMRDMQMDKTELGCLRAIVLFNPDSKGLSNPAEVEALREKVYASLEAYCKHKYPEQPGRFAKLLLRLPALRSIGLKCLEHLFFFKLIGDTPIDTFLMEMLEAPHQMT

[9] = target: T2, human thyroid hormone receptors TRβ1 (Homo sapiens, UniProt P10828); assay: as above; conditions: read-out: Ki TRβ
T2 sequence (P10828 1-461): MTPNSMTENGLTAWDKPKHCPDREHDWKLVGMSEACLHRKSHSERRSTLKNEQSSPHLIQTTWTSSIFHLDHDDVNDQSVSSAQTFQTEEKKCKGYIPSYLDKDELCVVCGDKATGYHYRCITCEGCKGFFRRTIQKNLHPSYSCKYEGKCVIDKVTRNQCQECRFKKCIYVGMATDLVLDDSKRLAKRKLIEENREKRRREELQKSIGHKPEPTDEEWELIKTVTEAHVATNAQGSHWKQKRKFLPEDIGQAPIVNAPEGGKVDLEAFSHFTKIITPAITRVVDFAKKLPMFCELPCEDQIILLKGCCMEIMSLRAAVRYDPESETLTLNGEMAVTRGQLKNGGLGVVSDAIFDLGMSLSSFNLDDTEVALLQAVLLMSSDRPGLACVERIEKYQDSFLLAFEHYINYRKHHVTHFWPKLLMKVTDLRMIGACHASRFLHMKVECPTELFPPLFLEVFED
T2 sequence (P19793 1-462 partner): T1 sequence (P19793 1-462 partner)

Compound: Cc1cc(OCP(=O)(O)O)cc(C)c1Cc1ccc(O)c(C(C)C)c1 [Compound 7, [3,5-dimethyl-4-(4′-hydroxy-3′-iso-propylbenzyl)phenoxy]-methylphosphonic acid]
decrease in hepatic triglyceride content (Normal rats): 64% | microvesicular steatosis (H&E liver sections) (ZDF rats [1]): dose dependent reduction in the microvesicular steatosis | TSH vs vehicle (ZDF rats [2]): no statistically significant difference from vehicle | TSH (mice): no decrease in TSH was observed | total cholesterol at day 7 [3]: cholesterol lowering effects | total cholesterol at day 14 [3]: cholesterol lowering effects | cardiovascular parameters (heart rate, LV dP/dt, blood pressure) ([3]; day 7 or day 14): no changes in any of the cardiovascular parameters | Cardiac GPDH activity (cholesterol-fed rat [4]; Compound 17 at 1 mg/kg/day, compound 7 only at 100 mg/kg): trend towards increased heart GPDH activity | therapeutic window (efficacy vs toxicity) (cholesterol-fed rat [4]; cholesterol lowering vs cardiac hypertrophy, induction of heart GPDH): 10-to 100 fold

TI Improvement, ED15 HR (ZDF rats [5]; ZDF): >39 | TI Improvement, ED25 LV dP/dt (ZDF rats [5]; ZDF): >102 | calculated TI in a non-metabolically challenged animal with respect to LV dP/dt (ZDF rats [5]): > 10,000
Compound: Cc1cc(OC[P@@]2(=O)OCC[C@@H](c3cccc(Cl)c3)O2)cc(C)c1Cc1ccc(O)c(C(C)C)c1 [Compound 13-1-cis, Cis (S)-2-[(3,5-Dimethyl-4-(4′-hydroxy-3′-iso-propylbenzyl)phenoxy)methyl]-4-(3-Chlorophenyl)-2-oxo-2λ^5-[1,3,2]-dioxaphosphinane]
calculated TI in a non-metabolically challenged animal with respect to heart rate (ZDF rats [5]): > 3900 | cholesterol lowering [6]: significant lowering of cholesterol | HR, LV dP/dt and aortic pressure compared to vehicle (Sprague Dawley (SD) rat): not significantly different compared to vehicle treated animals | heart weight and heart weight normalized to body weight (Sprague Dawley (SD) rat): no significant changes

TI for LV dP/dt (ZDF rats [5]; ZDF, po): 0.15
Compound: CC(C)c1cc(Oc2c(Cl)cc(CC(=O)O)cc2Cl)ccc1O [Compound 18, 3,5-dichloro-4-[4′-hydroxy-3′-iso-propylphenoxy]-benzeneacetic acid, reference compound]
therapeutic index with respect to heart rate (ZDF rats [5]; ZDF, po): 0.4 | serum cholesterol (cholesterol fed rats): significantly decreased serum cholesterol | therapeutic index of TSH levels (cholesterol-fed rats): 0.4 | HR, LV dP/dt and aortic pressure compared to vehicle (Sprague Dawley (SD) rat): marked and statistically significant increases | therapeutic index (TI) with respect to heart rate increases (cholesterol-fed rat [7]): 40

Ki [8]: > 2 µM | Ki [9]: > 2 µM
Compound: Cc1cc(C(=O)CP(=O)(O)O)cc(C)c1Cc1ccc(F)c(C(C)C)c1 [Compound 41-2]

Ki [8]: > 2 µM | Ki [9]: > 2 µM
Compound: Cc1cc(CCP(=O)(O)O)cc(C)c1Oc1ccc(F)c(C(C)C)c1 [Compound 42-2]
